Reference: patent EP4324461A1, “(E)-N-CINAMOYLAMINOALKANOLES WITH MELANOGENESIS INHIBITORY ACTIVITY” (UNIWERSYTET JAGIELLONSKI, priority 2022, dated 2024)

Legend:
tyrosinase from mushroom = experiment: Inhibition of commercial mushroom tyrosinase (L-DOPA or L-tyrosine substrate); format: biochemical
Procedure: The following substrates were used for the enzymatic reaction: L-tyrosine and L-3,4-dihyroxyphenylalanine (L-DOPA). Both substrates were used in independent experiments. According to the literature, the use of L-DOPA enables the assessment of tyrosinase diphenolase activity, and L-tyrosine - the tyrosinase monophenolase activity. The determinations were performed in 96-well plates, in each well there was placed: 170 µL or 127.5 µL of 50 mM phosphate buffer (pH = 6.8) with tyrosinase (1U/well or 3U/well) and 10 µL of a solution of the tested compound in DMSO (the final concentration in the well was 500 µM, 250 µM or 125 µM). The negative control used 10 µL of pure solvent (DMSO). To initiate the reaction, an appropriate substrate was added: L-tyrosine (62.5 µL of solution in phosphate buffer) or L-DOPA (20 µL of solution in phosphate buffer). After a 25-minute incubation, the absorbance was measured at 475 nm using a microplate reader. The percentage of inhibition of tyrosinase activity was calculated using the formula: [(AC -AT)/AC] × 100, where AC - is the absorbance of the negative control, AT - is the absorbance of the sample containing the tested compound.

[1] = Lipophilicity coefficient RM0 by reversed phase thin layer chromatography; format: physicochemical; conditions: RP-18 TLC, methanol / 100 mM phosphate buffer pH = 7.4
Procedure: Confirmation of the identity and purity of the obtained compounds consisted in the registration and interpretation of ^1H NMR and ^13C NMR spectra (the spectra were recorded using an ECZR 500 MHz (JEOL) series FT-NMR spectrophotometer), as well as the registration and interpretation of LC-MS spectra (the spectra were recorded using Acquita UPLC system (Waters) coupled with a Waters TQD mass spectrometer). The melting point was measured using the open capillary method in the IA9300 device (Electrothermal). The lipophilicity coefficient RM0 was determined by reversed phase thin layer chromatography. In the study, aluminum plates 20x20 cm covered with modified silica gel RP-18 F254 (Merck) were used as the solid phase. The mobile phase consisted of solutions of methanol and 100 mM phosphate buffer (pH = 7.4), characterized by a variable methanol content ranging from 95 to 65% (v/v). The tested compounds were dissolved in methanol to obtain solutions with a concentration of 1 mg/mL. Then, 5 µL of the solutions prepared in this way were transferred to the starting line on aluminum plates, which were then placed in chromatographic chambers previously saturated with mobile phase vapors for at least 1 hour. All activities, including the development of chromatograms, were carried out at room temperature. After developing the chromatograms to approximately 1-2 cm from the end of the plate, the plates were dried and then the distance traveled by the tested compounds was visualized under UV light (λ = 254 nm). The experiment was performed in duplicate for the specified conditions. For all samples, Rf was calculated according to the formula Rf = a/b, where a - the distance traveled by the tested compound, b - the distance traveled by the mobile phase. Then, the RM parameter was calculated for all samples according to the formula RM = log(1/Rf - 1), obtaining a linear relationship between the RM values and the methanol concentration in the mobile phase. The logP coefficient was also calculated using the following computer programs: ACD/ChemSketch 2020.1.2 and ChemDraw 20.0.0.41. Table 2. The physicochemical data of the compounds are presented below

[2] = test system: B16-F10 murine melanoma cell line; experiment: Cytotoxicity in B16-F10 cells (MTT); format: cell-based; conditions: 48 h
Procedure: In order to determine safe doses of compounds for testing the inhibition of melanogenesis in a murine melanoma cell line, cytotoxicity tests were performed. Cytotoxicity was determined by the colorimetric method using MTT ([3-(4,5-dimethyl-2-thiazolyl)-2,5-diphenyl-2H-tetrazolium bromide, Sigma M5655). For this purpose, cells were transferred to 96-well plates in an amount of 5000/well. After 24 h of culture in an incubator in F 10-Ham medium with 1% FBS, the tested compounds at various concentrations were added to the wells together with fresh medium. DMSO was added to the medium in a negative control. The MTT test was performed after further culture for 48 h. Then the medium was removed and the formed formazan crystals were dissolved in DMSO. The absorbance was measured at 570 nm in a plate reader and the result was compared to the control (DMSO), which was 100%. The percentage of viability was calculated using the formula: [AT/AC^∗100], where AT is the absorbance of the test sample, AC - absorbance of the control sample. Table 3. Results of inhibiting the activity of monophenolase […] tyrosinase and cytotoxicity testing in B16F10 cells for the described compounds.

Tyrosinase inhibition with L-DOPA [%] (tyrosinase from mushroom; 125 µM)	Tyrosinase inhibition with L-tyrosine [%] (tyrosinase from mushroom; 125 µM)	RM0 [1]	Tyrosinase inhibition with L-DOPA [%] (tyrosinase from mushroom)	Tyrosinase inhibition with L-tyrosine [%] (tyrosinase from mushroom)	SMILES	Cytotoxicity study in B16F10 cells % viability ([2]; 150 µM) [%]	Cytotoxicity study in B16F10 cells % viability ([2]; 200 µM) [%]	Cytotoxicity study in B16F10 cells % viability ([2]; 250 µM) [%]
30.66±1.82% (125 µM)	39.89±3.21% (125 µM)	3.02			O=C(/C=C/c1ccc(Cl)cc1)NCCCCCCO [H-426/21, (2E)-3-(4-chlorophenyl)-N-(6-hydroxyhexyl)prop-2-enamide]	30.3	28.2	28.3
		1.27	30.54±1.20% (500 µM)	21.00±8.83% (500 µM)	O=C(/C=C/c1ccccc1)NCCO [H-429/21, (2E)-N-(2-hydroxyethyl)-3-phenylprop-2-enamide]	86.4	79.8	80.9
		1.60	34.23±2.32% (500 µM)	27.41±2.24% (500 µM)	O=C(/C=C/c1ccccc1)NCCCO [KM-634, (2E)-N-(3-hydroxypropyl)-3-phenylprop-2-enamide]	76.1	70.5	63.3
